{"source": "paper PMC10244169", "about": "“Psychedelics promote plasticity by directly binding to BDNF receptor TrkB” (Nature Neuroscience, 2023)", "key": {"TrkB:PLCγ1 [1]": {"molecular_target": "T1, TrkB:PLCγ1 (Mus musculus, UniProt P15209, Y433F)", "T1 construct": "from tissue; host or cells: prefrontal cortex and hippocampus of adult mice", "T1 sequence (P15209 32-821 Y433F)": "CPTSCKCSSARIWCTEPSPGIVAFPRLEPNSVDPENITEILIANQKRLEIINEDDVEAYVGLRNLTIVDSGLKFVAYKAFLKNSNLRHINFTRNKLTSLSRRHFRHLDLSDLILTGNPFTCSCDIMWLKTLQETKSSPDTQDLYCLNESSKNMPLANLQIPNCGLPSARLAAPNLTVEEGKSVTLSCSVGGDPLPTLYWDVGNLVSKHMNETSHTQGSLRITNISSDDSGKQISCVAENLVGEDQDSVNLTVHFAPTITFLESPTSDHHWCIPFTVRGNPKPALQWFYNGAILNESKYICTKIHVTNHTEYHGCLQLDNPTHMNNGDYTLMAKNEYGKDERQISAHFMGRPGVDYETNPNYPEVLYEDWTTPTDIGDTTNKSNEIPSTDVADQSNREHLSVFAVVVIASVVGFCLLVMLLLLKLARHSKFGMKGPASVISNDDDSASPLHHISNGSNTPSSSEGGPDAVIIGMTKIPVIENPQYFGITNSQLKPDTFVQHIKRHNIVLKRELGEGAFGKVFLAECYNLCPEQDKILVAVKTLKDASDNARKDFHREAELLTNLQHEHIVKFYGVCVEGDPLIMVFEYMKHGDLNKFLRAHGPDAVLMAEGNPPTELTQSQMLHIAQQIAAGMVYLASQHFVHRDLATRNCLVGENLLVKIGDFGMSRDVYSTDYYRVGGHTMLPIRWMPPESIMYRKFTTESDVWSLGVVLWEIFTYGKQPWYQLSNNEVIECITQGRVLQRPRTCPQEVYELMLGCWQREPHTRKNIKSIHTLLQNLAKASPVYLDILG", "T1 sequence (P15209 32-821, stated change not applied)": "as the sequence (P15209 32-821 Y433F) above, with F402Y counted along it", "test": "TrkB:PLCγ1 interaction in PFC and hippocampus after single LSD injection (ELISA, co-immunoprecipitation)", "format": "in vivo", "conditions": "Y433F^+/− mice", "procedure": "(§1) The phosphorylation of TrkB (pY816) and interaction with PLCγ1 were assessed by enzyme-linked immunosorbent assay (ELISA) as previously described[11],[80],[81] with minor modifications. Briefly, white 96-well plates (PerkinElmer, OptiPlate 96F-HB) were precoated with goat anti-TrkB (R&D systems, AF1494; 1:500, overnight, 4 °C) antibody in carbonate buffer (pH 9.8) and blocked with 3% BSA in PBS with 0.1% Tween-20 (PBS-T) for 2 h at room temperature. […] Samples were incubated overnight at 4 °C, and 24 h later plates were washed with PBS-T and incubated with either rabbit anti-phospho-TrkB(Tyr816) (Cell Signaling Technology, 4168S; 1:2,000), rabbit anti-PLCγ1 (Cell Signaling Technologies, 5690S; 1:2,000) or rabbit anti-Trk (Cell Signaling Technologies, 92991; 1:2,000) antibodies overnight at 4 °C. After washing with PBS-T, plates were incubated with HRP-conjugated goat anti-rabbit (Bio-Rad, 170–5046; 1:5,000, 1 h, room temperature) antibody, followed by more washing with PBS-T. Finally, the chemiluminescent signal was read after brief incubation with Pierce ECL substrate (Thermo Fisher Scientific, 32106). Luminescence from blank wells that contained all reagents but the sample lysates was used to determine background signal. […]"}, "TrkB:PLCγ1 [2]": {"molecular_target": "T2, TrkB:PLCγ1 (Mus musculus, UniProt P15209)", "T2 construct": "from tissue; host or cells: prefrontal cortex and hippocampus of adult mice", "T2 sequence (P15209 32-821)": "as the sequence (P15209 32-821 Y433F) above, with F402Y counted along it", "test": "TrkB:PLCγ1 interaction in PFC and hippocampus after single LSD injection (ELISA, co-immunoprecipitation)", "format": "in vivo", "conditions": "WT mice, single administration", "procedure": "as §1"}, "pmTOR": {"test_system": "pmTOR", "test": "Western blot of mTOR phosphorylation in cortical neurons", "format": "cell-based, rat", "conditions": "LSD 100 nM", "procedure": "In a separate set of experiments to examine the effect of 5-HT2A activation, M100907 (100 nM) was administered as a 10 min pretreatment and remained in the medium for the rest of the experiment. Next, cells were lysed and centrifuged. […] The co-immunoprecipitation was carried out as previously described[11],[23],[24] with minor modifications. Briefly, Magnetic Dynabeads Protein G (Invitrogen, 10004D) were coated with anti-TrkB antibody (R&D Systems, AF1494) at 200 ng of antibody per 1 µl of beads in rotation (2 h, 4 °C). Finally, lysates were mixed with the coated beads (100 µg of total protein per 15 µl of beads) and incubated in rotation (overnight, 4 °C).\nProteins were separated according to their molecular weight by SDS–PAGE and transferred to a polyvinylidene fluoride membrane. Membranes were incubated with the following primary antibodies (all 1:1,000 in 3% BSA in TBS-T, overnight, 4 °C): anti-TrkB (R&D Systems, AF1494), anti-β-actin (Sigma-Aldrich, A1978), anti-phospho-mTOR (Cell Signaling Technology, 5536S), anti-phospho-p44/42 MAPK (Erk1/2) (Cell Signaling Technology, 9106S), anti-mTOR (Cell Signaling Technology, 2972S) and anti-p44/42 MAPK (Erk1/2) (Cell Signaling Technology, 9102S). […] Protein bands were visualized using enhanced chemiluminescent substrate (Thermo Scientific, 32132, ECL Plus) and imaged with a charge-coupled device camera (G:BOX, Syngene)."}, "[3]": {"test_system": "dentate granule cells (DGCs)", "test": "Long-term survival of newborn dentate granule cells (BrdU)", "format": "in vivo, mouse", "conditions": "for Mean, figure 7b (survival of newborn dentate granule cells): LSD group; for e6h group mean: LSD", "procedure": "WT and Y433F^+/− male mice were administered four doses of 5-bromo-2′-deoxyuridine (BrdU, 75 mg kg^−1 per injection, every 2 h) intraperitoneally to tag newborn neurons in the hippocampus and returned to their home cage. […] Four weeks later, animals were intracardially perfused with PBS followed by 4% PFA. Brains were dissected and postfixed with 4% PFA (overnight, 4 °C). Next, brains were transferred to 30% sucrose (0.1% PBS) solution and stored at 4 °C for 48–72 h. Brains were moved into disposable vinyl specimen molds (Sakura, Tissue-Tek Cryomold standard) and covered in Tissue-Tek O.C.T. Compound (Sakura). Trays were placed on dry ice and brains covered once more in TissueTec to ensure full coverage. Once frozen, samples were stored at −80 °C. Brains were sliced coronally at 40 µm thickness, collecting every sixth slice. Slices were stored in cryoprotectant fluid (30% sucrose, 30% ethylene glycol, 1% PVP-40, and 0.05 M PB) in −20 °C until staining. Every third hippocampal slice containing dentate gyrus (DG) was collected for washing with 0.1 M PBS and staining. BrdU immunofluorescence was conducted similarly as previously reported in the literature[28] with modifications. Hippocampal slices were incubated in 2.0 M HCl (30 min, 37 °C) and washed with PBS. Slices were then incubated in 0.1 M borate buffer (pH 8.0) at room temperature for 10 min, followed by further washes in PBS and 1 h incubation in 0.1% PBS blocking buffer (0.5% Triton X-100, 5% normal donkey serum, 5% normal goat serum, 1% BSA and 0.1% gelatin). Sections were incubated with primary antibodies rat anti-BrdU (Abcam, ab6326; 1:200) and mouse anti-NeuN (Millipore, MAB377; 1:1,000) for 48 h at 4 °C with gentle shaking. Slices were then washed with PBS, followed by incubation with secondary antibodies Alexa Fluor 488 donkey anti-rat (Invitrogen, A21208; 1:300) and Alexa Fluor 568 goat-anti-mouse (Invitrogen, A11004; 1:500) for 2 h at room temperature and protected from light. Slices were washed in PBS and PB before mounting with Dako fluorescence mounting medium (Agilent, S302380-2) and slides stored at 4 °C until imaging. A total of eight slices containing both hemispheres and covering the whole DG (every third slice) were imaged with a Zeiss LSM 710 confocal microscope. Fifteen optical sections with a Z-step of 2 µm were acquired per slice with a PlanApochromat 10×/0.45 M27. BrdU^+ and BrdU^+/NeuN^+ cells in the DG were counted manually by experimenters blinded to treatment and genotype using ZEN Blue 3.2. Similarly to Ma et al.[28], we estimated the number of mature neurons (BrdU^+/NeuN^+) in the DG of both hemispheres by multiplying by 6 the total count derived from every third hippocampal slice. The percentage of mature neurons over total BrdU^+ cells in the DG was also calculated."}}, "data": [{"smiles": "CCN(CC)C(=O)C1C=C2c3cccc4[nH]cc(c34)CC2N(C)C1", "note": "(stereo not drawn) [LSD, lysergic acid diethylamide]", "values": [{"measurement": "TrkB:PLCγ1 interaction", "setting": "TrkB:PLCγ1 [1]", "value": "these effects are impaired"}, {"measurement": "TrkB:PLCγ1 interaction", "setting": "TrkB:PLCγ1 [2]", "value": "increases TrkB:PLCγ1 interaction"}, {"measurement": "phosphorylation of mTOR", "setting": "pmTOR", "value": "promotes phosphorylation of mTOR for at least 1 h"}, {"measurement": "number of surviving DGCs", "setting": "[3]; WT mice, 4 weeks after single administration (0.1 mg kg^−1 i.p.)", "value": "doubles the number of surviving DGCs"}, {"measurement": "Mean, figure 7b (survival of newborn dentate granule cells)", "setting": "[3]; WT mice", "value": 315.4}, {"measurement": "e6h group mean", "setting": "[3]; WT mice, n=7", "value": 94.67}, {"measurement": "Mean Diff., figure 7b, WT:Saline vs. WT:LSD", "setting": "[3]; WT mice, saline minus LSD, Bonferroni's multiple comparisons test", "value": -197.8}, {"measurement": "e6h Mean Diff. (Saline minus LSD)", "setting": "[3]; WT:Saline vs. WT:LSD, Bonferroni's multiple comparisons test", "value": -4.385}, {"measurement": "Mean, figure 7b (survival of newborn dentate granule cells)", "setting": "[3]; Y433F+/- mice", "value": 150}, {"measurement": "e6h group mean", "setting": "[3]; Y433F+/- mice, n=8", "value": 94.59}, {"measurement": "Mean Diff., figure 7b, Y433F+/-:Saline vs. Y433F+/-:LSD", "setting": "[3]; Y433F+/- mice, saline minus LSD, Bonferroni's multiple comparisons test", "value": 9.6}, {"measurement": "e6h Mean Diff. (Saline minus LSD)", "setting": "[3]; Y433F+/-:Saline vs. Y433F+/-:LSD, Bonferroni's multiple comparisons test", "value": 3.141}, {"measurement": "e6h Predicted (LS) mean of LSD", "setting": "[3]; column mean across WT and Y433F+/- mice", "value": 94.63}, {"measurement": "Predicted (LS) mean of LSD, figure 7b", "setting": "[3]; mean over WT and Y433F+/- mice", "value": 232.7}, {"measurement": "Difference between predicted means (Saline - LSD), figure 7b", "setting": "[3]; means over WT and Y433F+/- mice", "value": -94.11}]}]}
